Biological target: mitochondrial respiratory Complex I (Mus musculus, UniProt P03888+Q91WD5+Q9DC70)
Type: biochemical

Cc1cc(OCc2nnc(SC3CCCC3)n2-c2cccnc2)ccc1-c1ccc(S(C)(=O)=O)cc1 [NMS-873]
IC50: 471 nM
